In patent publication US20080009418A1, “Selective Inhibitors” (Alchemia LTD., priority 2004, published 2008):

Tests used:
[1] = target: T1, Human melanin-concentrating hormone (MCH1) (Homo sapiens, UniProt Q99705); assay: Radioligand binding, human melanin-concentrating hormone MCH1 membranes, FlashPlate, [125I]-S36057; settings: compound at 10 μM
T1 construct: purchased Perkin Elmer Biosignal
In short: (§1)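 Cloned human receptor membranes were coated onto FlashPlate wells and incubated with radioligand and compound (added from a 0.5 mM DMSO daughter plate) for 1 hour at room temperature in the dark. Scintillation counting gave percent inhibition, with DMSO defining total and reference ligand defining non-specific binding.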

Human μ-opioid (MOP) = target: T2, Human μ-opioid (MOP) (Homo sapiens, UniProt P35372); assay: Radioligand binding, human μ-opioid (MOP) membranes, FlashPlate, [3H]-Naloxone; settings: compound at 10 μM, [3H]-Naloxone
T2 construct: purchased Perkin Elmer Biosignal
In short: as §1

Human Melanocortin (MC3) = target: T3, Human Melanocortin (MC3) (Homo sapiens, UniProt P41968); assay: Radioligand binding, human melanocortin MC3 membranes, FlashPlate, [125I]-NDP-αMSH; settings: compound at 10 μM, [125I]-NDP-αMSH
T3 construct: purchased Perkin Elmer Biosignal
In short: as §1

Human neurokinin (NK1) = target: T4, Human neurokinin (NK1) (Homo sapiens, UniProt P25103); assay: Radioligand binding, human neurokinin NK1 membranes, filtration, [125I]-Substance P; settings: compound at 10 μM, [125I]-Substance P
T4 construct: purchased Perkin Elmer Biosignal
In short: (§2)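 Filtration binding on cloned human receptor membranes (1 Unit/well), [125I]-Substance P for NK1 and [3H]-Diprenorphine for KOP, 1 h at room temperature. Filters PEI-presoaked, washed with cold 50 mM Tris-HCl pH 7.4, counted by scintillation; percent inhibition calculated, reference ligand defining non-specific binding.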

Human κ-Opioid (KOP) = target: T5, Human κ-Opioid (KOP) (Homo sapiens, UniProt P41145); assay: Radioligand binding, human κ-opioid (KOP) membranes, filtration, [3H]-Diprenorphine; settings: compound at 10 μM, [3H]-Diprenorphine
T5 construct: purchased Perkin Elmer Biosignal
In short: as §2

[2] = target: T6, Human neuropeptide Y (NPY-Y1) (Homo sapiens, UniProt P25929); assay: Radioligand binding, human neuropeptide Y NPY-Y1 membranes, FlashPlate, [125I]-PYY; settings: compound at 10 μM, [125I]-PYY
T6 construct: purchased Perkin Elmer Biosignal
T6 sequence (P25929 1-384): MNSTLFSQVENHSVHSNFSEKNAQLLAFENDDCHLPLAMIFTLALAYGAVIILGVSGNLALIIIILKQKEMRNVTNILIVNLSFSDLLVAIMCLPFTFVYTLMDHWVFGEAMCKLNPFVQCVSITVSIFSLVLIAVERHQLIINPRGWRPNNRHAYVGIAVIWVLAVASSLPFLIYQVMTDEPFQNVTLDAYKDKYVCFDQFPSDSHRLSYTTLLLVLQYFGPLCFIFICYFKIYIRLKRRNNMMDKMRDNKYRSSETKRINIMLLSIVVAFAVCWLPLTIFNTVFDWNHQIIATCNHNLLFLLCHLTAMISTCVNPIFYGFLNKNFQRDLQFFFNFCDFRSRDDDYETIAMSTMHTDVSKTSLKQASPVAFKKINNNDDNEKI
In short: as §1

Mouse urotensin (mUR2) = target: T7, Mouse urotensin (mUR2) (Mus musculus, UniProt Q8VIH9); assay: Radioligand binding, mouse urotensin mUR2 membranes, FlashPlate, [125I]-Urotensin II; settings: compound at 10 μM, [125I]-Urotensin II
T7 construct: purchased Perkin Elmer Biosignal
T7 sequence (Q8VIH9 1-385): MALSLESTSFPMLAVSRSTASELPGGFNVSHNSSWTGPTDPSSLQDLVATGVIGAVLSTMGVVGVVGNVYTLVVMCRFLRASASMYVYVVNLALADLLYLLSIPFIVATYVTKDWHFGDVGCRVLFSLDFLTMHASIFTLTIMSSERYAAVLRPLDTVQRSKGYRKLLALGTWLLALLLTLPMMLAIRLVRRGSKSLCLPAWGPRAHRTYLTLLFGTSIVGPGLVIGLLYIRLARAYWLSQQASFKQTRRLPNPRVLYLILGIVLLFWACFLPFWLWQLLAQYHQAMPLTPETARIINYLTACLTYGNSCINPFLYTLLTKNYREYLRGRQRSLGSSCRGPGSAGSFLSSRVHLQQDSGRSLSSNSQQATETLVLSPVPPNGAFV
In short: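 Cloned mouse urotensin (mUR2) receptor membranes from Perkin Elmer Biosignal were immobilized in FlashPlate microplates using a proprietary coating. Each well got 19.5 μl buffer, then 0.5 μl of DMSO, reference ligand, or compound. Adding 5 μl of [125I]-Urotensin II, diluted to 5× final concentration in binding buffer, started binding. Plates were sealed with TopSeal-A and incubated 1 hour at room temperature in the dark. Wells were counted for 30 seconds each on a TopCount after a 60-second delay, and percentage inhibition was calculated.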

Human melanocortin (MC5) = target: T8, Human melanocortin (MC5) (Homo sapiens, UniProt P33032); assay: Radioligand binding, human melanocortin MC5 membranes, FlashPlate, [125I]-NDP-αMSH; settings: compound at 10 μM, [125I]-NDP-αMSH
T8 construct: purchased Perkin Elmer Biosignal
In short: as §1

Human δ-opioid (DOP) = target: T9, Human δ-opioid (DOP) (Homo sapiens, UniProt P41143); assay: Radioligand binding, human δ-opioid (DOP) membranes, FlashPlate, [3H]-Bremazocine; settings: compound at 10 μM, [3H]-Bremazocine
T9 construct: purchased Perkin Elmer Biosignal
In short: as §1

Human Melanocortin (MC4) = target: T10, Human Melanocortin (MC4) (Homo sapiens, UniProt P32245); assay: Radioligand binding, human melanocortin MC4 membranes, FlashPlate, [125I]-NDP-αMSH; settings: compound at 10 μM, [125I]-NDP-αMSH
T10 construct: purchased Perkin Elmer Biosignal
In short: as §1

Human opioid (ORL1) = target: T11, Human opioid (ORL1) (Homo sapiens, UniProt P41146); assay: Radioligand binding, human opioid ORL1 membranes, FlashPlate, [125I]-Nociceptin; settings: compound at 10 μM, [125I]-Nociceptin
T11 construct: purchased Perkin Elmer Biosignal
In short: as §1

[3] = [125I]-S36057, human MCH1 membranes
[4] = [125I]-S36057, human MCH1 membranes, 10 µM

T8 sequence (P33032 whole entry): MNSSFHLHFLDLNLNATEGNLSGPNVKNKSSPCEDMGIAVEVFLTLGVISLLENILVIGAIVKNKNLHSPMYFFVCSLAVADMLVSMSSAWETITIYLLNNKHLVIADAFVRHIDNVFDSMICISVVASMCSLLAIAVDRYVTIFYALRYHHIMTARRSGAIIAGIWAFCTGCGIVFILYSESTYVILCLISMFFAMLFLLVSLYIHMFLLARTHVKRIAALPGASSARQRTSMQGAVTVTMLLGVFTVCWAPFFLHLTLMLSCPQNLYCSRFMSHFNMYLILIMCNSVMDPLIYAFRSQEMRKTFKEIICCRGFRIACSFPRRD
T2 sequence (P35372 whole entry): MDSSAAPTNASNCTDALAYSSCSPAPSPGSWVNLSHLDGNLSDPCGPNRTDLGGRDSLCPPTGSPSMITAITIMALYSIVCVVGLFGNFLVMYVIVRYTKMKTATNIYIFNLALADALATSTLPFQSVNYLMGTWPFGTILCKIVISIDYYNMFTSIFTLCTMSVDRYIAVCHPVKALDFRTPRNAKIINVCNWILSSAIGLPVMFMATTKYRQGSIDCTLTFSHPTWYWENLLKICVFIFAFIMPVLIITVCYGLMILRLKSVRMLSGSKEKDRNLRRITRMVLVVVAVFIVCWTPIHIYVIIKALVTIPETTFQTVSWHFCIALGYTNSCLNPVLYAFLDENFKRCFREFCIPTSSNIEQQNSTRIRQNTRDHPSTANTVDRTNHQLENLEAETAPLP
T1 sequence (Q99705 whole entry): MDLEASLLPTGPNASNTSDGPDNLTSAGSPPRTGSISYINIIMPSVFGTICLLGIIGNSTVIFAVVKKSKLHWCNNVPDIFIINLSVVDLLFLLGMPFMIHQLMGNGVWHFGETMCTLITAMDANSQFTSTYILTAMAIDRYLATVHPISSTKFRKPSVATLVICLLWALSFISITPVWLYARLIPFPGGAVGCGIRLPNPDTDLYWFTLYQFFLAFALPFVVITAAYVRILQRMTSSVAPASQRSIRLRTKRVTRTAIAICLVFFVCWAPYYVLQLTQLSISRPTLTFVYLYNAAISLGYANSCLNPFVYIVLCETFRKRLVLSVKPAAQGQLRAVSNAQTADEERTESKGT
T4 sequence (P25103 whole entry): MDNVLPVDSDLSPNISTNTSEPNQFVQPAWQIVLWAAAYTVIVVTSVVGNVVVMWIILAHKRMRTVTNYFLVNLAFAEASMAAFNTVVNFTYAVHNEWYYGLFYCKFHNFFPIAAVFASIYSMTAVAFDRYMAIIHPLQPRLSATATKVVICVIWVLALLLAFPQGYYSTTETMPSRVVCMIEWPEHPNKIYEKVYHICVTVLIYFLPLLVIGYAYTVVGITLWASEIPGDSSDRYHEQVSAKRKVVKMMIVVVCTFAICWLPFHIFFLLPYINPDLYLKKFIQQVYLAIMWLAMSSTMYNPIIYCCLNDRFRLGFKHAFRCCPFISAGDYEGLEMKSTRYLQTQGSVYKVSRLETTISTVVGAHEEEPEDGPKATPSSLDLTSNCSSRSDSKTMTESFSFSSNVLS
T10 sequence (P32245 whole entry): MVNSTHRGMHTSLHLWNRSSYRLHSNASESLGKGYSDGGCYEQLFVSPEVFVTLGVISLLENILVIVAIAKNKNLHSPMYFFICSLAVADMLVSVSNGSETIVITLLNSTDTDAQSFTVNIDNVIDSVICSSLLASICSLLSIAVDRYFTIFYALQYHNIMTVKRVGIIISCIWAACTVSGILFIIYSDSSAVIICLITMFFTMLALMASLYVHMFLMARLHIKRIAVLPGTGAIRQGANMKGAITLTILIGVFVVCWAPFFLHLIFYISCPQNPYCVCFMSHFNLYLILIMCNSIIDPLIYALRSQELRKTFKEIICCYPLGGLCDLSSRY
T5 sequence (P41145 whole entry): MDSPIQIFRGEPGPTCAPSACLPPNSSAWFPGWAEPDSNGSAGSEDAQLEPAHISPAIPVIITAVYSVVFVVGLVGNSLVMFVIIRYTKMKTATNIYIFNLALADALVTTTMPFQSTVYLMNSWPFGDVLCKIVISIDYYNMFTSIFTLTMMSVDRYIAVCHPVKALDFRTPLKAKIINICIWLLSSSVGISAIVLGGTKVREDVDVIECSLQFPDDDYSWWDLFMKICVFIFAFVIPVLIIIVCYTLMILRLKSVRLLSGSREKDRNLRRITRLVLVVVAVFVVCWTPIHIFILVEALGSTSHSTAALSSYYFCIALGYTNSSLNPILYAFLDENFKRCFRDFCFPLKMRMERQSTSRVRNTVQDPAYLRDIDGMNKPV
T11 sequence (P41146 whole entry): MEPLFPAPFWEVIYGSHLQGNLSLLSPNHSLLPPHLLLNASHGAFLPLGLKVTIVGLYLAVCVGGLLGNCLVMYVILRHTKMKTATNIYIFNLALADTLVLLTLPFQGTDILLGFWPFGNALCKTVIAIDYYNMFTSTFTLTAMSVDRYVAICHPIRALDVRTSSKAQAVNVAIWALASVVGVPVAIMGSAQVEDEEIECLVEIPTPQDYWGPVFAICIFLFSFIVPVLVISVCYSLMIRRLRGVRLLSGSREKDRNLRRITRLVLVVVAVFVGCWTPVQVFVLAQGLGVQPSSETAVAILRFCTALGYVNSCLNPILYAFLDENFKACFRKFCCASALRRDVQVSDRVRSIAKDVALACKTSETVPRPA
T3 sequence (P41968 whole entry): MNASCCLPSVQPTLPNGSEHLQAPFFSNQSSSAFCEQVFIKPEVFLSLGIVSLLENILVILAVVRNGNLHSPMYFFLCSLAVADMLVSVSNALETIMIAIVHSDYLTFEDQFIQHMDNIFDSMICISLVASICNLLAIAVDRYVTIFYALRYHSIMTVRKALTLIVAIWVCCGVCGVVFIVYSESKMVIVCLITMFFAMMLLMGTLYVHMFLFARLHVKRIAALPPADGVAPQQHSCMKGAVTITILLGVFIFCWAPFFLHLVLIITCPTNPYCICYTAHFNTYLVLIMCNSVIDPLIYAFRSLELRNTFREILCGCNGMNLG
T9 sequence (P41143 whole entry): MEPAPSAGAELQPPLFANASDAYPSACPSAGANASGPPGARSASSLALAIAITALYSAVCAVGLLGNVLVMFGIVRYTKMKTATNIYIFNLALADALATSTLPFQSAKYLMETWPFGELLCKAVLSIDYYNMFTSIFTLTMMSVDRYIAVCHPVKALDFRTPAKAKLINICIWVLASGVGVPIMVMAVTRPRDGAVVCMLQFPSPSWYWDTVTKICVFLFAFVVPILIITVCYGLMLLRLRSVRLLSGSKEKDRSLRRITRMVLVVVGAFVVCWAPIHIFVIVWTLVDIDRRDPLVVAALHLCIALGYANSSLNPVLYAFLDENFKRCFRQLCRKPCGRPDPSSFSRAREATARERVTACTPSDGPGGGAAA

Row | Structure (SMILES) | A6: inhibition of radioligand binding [1, 3] | A7: inhibition of radioligand binding (Human μ-opioid (MOP); human MOP membranes) | A3: inhibition of radioligand binding (Human Melanocortin (MC3); human MC3 membranes) | A8: inhibition of radioligand binding (Human neurokinin (NK1); human NK1 membranes) | A2: inhibition of radioligand binding (Human κ-Opioid (KOP); human KOP membranes) | A9: inhibition of radioligand binding ([2]; human NPY-Y1 membranes) | A11: inhibition of radioligand binding (Mouse urotensin (mUR2); mouse mUR2 membranes) | A5: inhibition of radioligand binding (Human melanocortin (MC5); human MC5 membranes) | A1: inhibition of radioligand binding (Human δ-opioid (DOP); human DOP membranes) | A4: inhibition of radioligand binding (Human Melanocortin (MC4); human MC4 membranes) | A10: inhibition of radioligand binding (Human opioid (ORL1); human ORL1 membranes) | A6: inhibition of radioligand binding [1, 4] | A10: inhibition of radioligand binding (Human opioid (ORL1); human ORL1 membranes, 10 µM) | other results
1 | N=C(N)NCC(=O)NC1C(OCc2ccc(Cl)cc2)OC(COCc2ccc(Cl)cc2)C(O)C1OCc1ccc(Cl)cc1 (stereo not shown) [compound 419] | + (“+” indicates greater than 50% inhibition at 10 μM) | − (“−” indicates less than 50% inhibition at 10 μM) | + (“+” indicates greater than 50% inhibition at 10 μM) | + (“+” indicates greater than 50% inhibition at 10 μM) | − (“−” indicates less than 50% inhibition at 10 μM) | − (“−” indicates less than 50% inhibition at 10 μM) | − (“−” indicates less than 50% inhibition at 10 μM) | + (“+” indicates greater than 50% inhibition at 10 μM) | − (“−” indicates less than 50% inhibition at 10 μM) | + (“+” indicates greater than 50% inhibition at 10 μM) | + (“+” indicates greater than 50% inhibition at 10 μM) |  |  | 
2 | N=C(N)NCCC(=O)NC1C(OCc2ccc(-c3ccccc3)cc2)OC(COCc2ccccc2)C(O)C1OCc1ccc(-c2ccccc2)cc1 (stereo not shown) [compound 415] | + (“+” indicates greater than 50% inhibition at 10 μM) | − (“−” indicates less than 50% inhibition at 10 μM) | + (“+” indicates greater than 50% inhibition at 10 μM) | + (“+” indicates greater than 50% inhibition at 10 μM) | − (“−” indicates less than 50% inhibition at 10 μM) | − (“−” indicates less than 50% inhibition at 10 μM) | − (“−” indicates less than 50% inhibition at 10 μM) | + (“+” indicates greater than 50% inhibition at 10 μM) | − (“−” indicates less than 50% inhibition at 10 μM) | + (“+” indicates greater than 50% inhibition at 10 μM) | − (“−” indicates less than 50% inhibition at 10 μM) |  |  | 
3 | CSC1OC(COCc2ccc(Cl)cc2)C(O)C(OCc2ccccc2)C1NC(=O)CNC(=N)N (stereo not shown) [compound 253] |  |  |  |  |  |  |  |  |  |  |  |  |  | A6: inhibition of radioligand binding ([1]; [125I]-S36057, FlashPlate): − (“−” indicates less than 50% inhibition at 10 μM); A7: inhibition of radioligand binding (Human μ-opioid (MOP); FlashPlate): − (“−” indicates less than 50% inhibition at 10 μM); A3: inhibition of radioligand binding (Human Melanocortin (MC3); FlashPlate): − (“−” indicates less than 50% inhibition at 10 μM); A8: inhibition of radioligand binding (Human neurokinin (NK1); filtration): + (“+” indicates greater than 50% inhibition at 10 μM); A2: inhibition of radioligand binding (Human κ-Opioid (KOP); filtration): − (“−” indicates less than 50% inhibition at 10 μM); A9: inhibition of radioligand binding ([2]; FlashPlate): − (“−” indicates less than 50% inhibition at 10 μM); A11: inhibition of radioligand binding (Mouse urotensin (mUR2); FlashPlate): − (“−” indicates less than 50% inhibition at 10 μM); A5: inhibition of radioligand binding (Human melanocortin (MC5); FlashPlate): + (“+” indicates greater than 50% inhibition at 10 μM); A1: inhibition of radioligand binding (Human δ-opioid (DOP); FlashPlate): − (“−” indicates less than 50% inhibition at 10 μM); A4: inhibition of radioligand binding (Human Melanocortin (MC4); FlashPlate): − (“−” indicates less than 50% inhibition at 10 μM); A10: inhibition of radioligand binding (Human opioid (ORL1); FlashPlate): − (“−” indicates less than 50% inhibition at 10 μM)
4 | NCCCC(=O)NC1C(OCc2ccc3ccccc3c2)OC(COCc2ccccc2)C(O)C1OCc1ccc(Cl)cc1 (stereo not shown) [compound 391] |  |  | − (“−” indicates less than 50% inhibition at 10 μM) | + (“+” indicates greater than 50% inhibition at 10 μM) | − (“−” indicates less than 50% inhibition at 10 μM) | − (“−” indicates less than 50% inhibition at 10 μM) | − (“−” indicates less than 50% inhibition at 10 μM) |  | − (“−” indicates less than 50% inhibition at 10 μM) |  |  | − (“−” indicates less than 50% inhibition at 10 μM) | − (“−” indicates less than 50% inhibition at 10 μM) | A7: inhibition of radioligand binding (Human μ-opioid (MOP); human MOP membranes, 10 µM): − (“−” indicates less than 50% inhibition at 10 μM); A5: inhibition of radioligand binding (Human melanocortin (MC5); human MC5 membranes, 10 µM): − (“−” indicates less than 50% inhibition at 10 μM); A4: inhibition of radioligand binding (Human Melanocortin (MC4); human MC4 membranes, 10 µM): + (“+” indicates greater than 50% inhibition at 10 μM)
5 | NCCC(=O)NC1C(OCc2ccc3ccccc3c2)OC(COCc2ccc(Cl)cc2)C(O)C1OCc1ccccc1 (single isomer, unassigned) [compound 452] |  | − (“−” indicates less than 50% inhibition at 10 μM) |  | + (“+” indicates greater than 50% inhibition at 10 μM) | − (“−” indicates less than 50% inhibition at 10 μM) | − (“−” indicates less than 50% inhibition at 10 μM) | − (“−” indicates less than 50% inhibition at 10 μM) | + (“+” indicates greater than 50% inhibition at 10 μM) | − (“−” indicates less than 50% inhibition at 10 μM) | + (“+” indicates greater than 50% inhibition at 10 μM) |  | − (“−” indicates less than 50% inhibition at 10 μM) | − (“−” indicates less than 50% inhibition at 10 μM) | A3: inhibition of radioligand binding (Human Melanocortin (MC3); human MC3 membranes, 10 µM): − (“−” indicates less than 50% inhibition at 10 μM)
